“Also recorded” adds a separate entry of the source.
Assays:
[1] = tested on: MCIP1 protein (indicator of calcineurin activity) in NRVM; test: Western blot of MCIP1 protein in NRVM; type: cell-based, rat; conditions: for expression of 38 kDa calcineurin-independent MCIP1 isoform: NRVM
Protocol: (§1) Western Blots. For protein sample preparation, cultured cells were lysed in extraction buffer (50 mM Tris, pH 7.5, 150 mM NaCl, 1% Triton X-100, 0.5% deoxycholic acid, 0.1% SDS) supplemented with protease inhibitors (1 mM AEBSF, 10 mg/ml aprotinin, 0.1 mM leupeptin, 2 mM EDTA). Left ventricle samples were ground under liquid nitrogen and solubilized in extraction buffer containing protease inhibitors. Homogenates were centrifuged 10 min at 4° C. at 16,000 g and supernatants recovered. Protein concentrations were determined by the bicinchoninic acid method (BCA Protein Assay, Pierce) with bovine serum albumin as a standard. Equivalent quantities of protein samples ([…]) were denatured in Laemmli buffer and resolved on Tris-glycine SDS-PAGE gels (4-20% acrylamide gradient, Invitrogen). Resolved proteins were transferred to nitrocellulose membranes, blocked in 5% nonfat dry milk, and probed with rabbit polyclonal primary antibody (diluted in TBST; 50 mM Tris, pH 7.5, 150 mM NaCl, 0.1% Tween-20) supplemented with 5% nonfat dry milk. Primary antibodies used include: anti-TRPC1 and TRPC3 (Alomone Labs) and anti-MCIP1 (Myogen, Inc). Membranes were washed, probed with a goat anti-rabbit horseradish peroxidase-conjugated secondary antibody (Southern Biotechnology Associates), and processed for enhanced chemiluminescence (SuperSignal reagent, Pierce). To verify equivalent protein loading, membranes were subsequently reprobed with a polyclonal rabbit antibody to the housekeeping gene IP90-calnexin. Densitometric analysis of immunoreactive band images was performed using a ChemiImager (Alpha Innotech).

[2] = tested on: arachidonic acid-activated calcium channels; conditions: Luo et al., 2001; cited from earlier work
ryanodine receptors = conditions: Maruyama et al., 1997; cited from earlier work
[3] = tested on: neonatal rat ventricular myocytes (NRVM)
Protocol: NRVM culture. […] Myocyte preparations were pre-plated in Dulbecco's modified Eagle's medium (DMEM, Cellgro), supplemented with 10% (v/v) fetal bovine serum (FBS, HyClone), 4 mM L-glutamine and 1% penicillin/streptomycin for 1 hr at 37° C. to reduce fibroblast contamination, then plated at a density of 2.5×10^5 cells per well on 6-well tissue culture plates (or 10,000 cells/well on 96-well tissue culture plates) coated with a 0.2% (w/v) gelatin solution.
For infection with calcineurin adenovirus, NRVM were exposed to adenovirus at a multiplicity of infection (MOI) of 25 for 48 h prior to analysis.
Hypertrophy and Toxicity Assays. Primary hypertrophy endpoints for NRVM included quantitation of ANF secretion, total cellular protein and cell volume. ANF in media supernatants was quantitated by competitive ELISA using a monoclonal anti-ANF antibody (Biodesign) and a biotinylated ANF peptide (Phoenix Peptide). Total cellular protein was quantitated by standard Coomassie dye-binding assay; cells were lysed in protein assay reagent (BioRad) and absorbance at A595 was measured after 1 hr. […] After recovery by centrifugation, cell pellets were washed in PBS, resuspended in 10 ml IsoFlow electrolyte solution (Beckman-Coulter) and analyzed with a Z2 Coulter Particle Counter and Size Analyzer (Beckman-Coulter). […]

[4] = tested on: voltage-gated calcium channels; conditions: Maruyama et al., 1997; cited from earlier work
[5] = tested on: purinergic P2X receptor calcium channels; conditions: cited from earlier work
[6] = tested on: calcium-activated chloride channels; conditions: Chorna-Ornan et al., 2001; cited from earlier work
[7] = tested on: S-nitrosylation-activated calcium channels; conditions: Van Rossum et al., 2000; cited from earlier work
[8] = tested on: TRPC channel protein in left ventricle; test: Isoproterenol infusion model, Western blot of TRPC isoforms in left ventricle; type: in vivo, rat
Protocol: as §1, with “Innotech). Isoproterenol Infusion. For pharmacologic induction of hypertrophy in vivo, nine to ten-week-old male Sprague-Dawley rats were anesthetized via passive inhalation of 2.0% isoflurane. When a level of surgical anesthesia was reached, an osmotic minipump (Alzet model 2001, Alza Corp., Palo Alto, Calif.) containing either vehicle (0.1% ascorbic acid in 0.9% NaCl), or isoproterenol (4.8 mg/kg/d) was subcutaneously implanted into the back between the scapulae followed by closure with 3-0 silk sutures. After 4 days of recovery, animals were sacrificed and left ventricular tissue processed for Western blot analysis as described above. Average heart weight to body weight ratios in isoproterenol versus vehicle-infused rats increased 48% (data not shown).” for “Innotech).”

[9] = Isoproterenol infusion model, heart weight to body weight ratio; type: in vivo; conditions: rat, isoproterenol 4.8 mg/kg/d by osmotic minipump, 4 days
Protocol: Isoproterenol Infusion. For pharmacologic induction of hypertrophy in vivo, nine to ten-week-old male Sprague-Dawley rats were anesthetized via passive inhalation of 2.0% isoflurane. When a level of surgical anesthesia was reached, an osmotic minipump (Alzet model 2001, Alza Corp., Palo Alto, Calif.) containing either vehicle (0.1% ascorbic acid in 0.9% NaCl), or isoproterenol (4.8 mg/kg/d) was subcutaneously implanted into the back between the scapulae followed by closure with 3-0 silk sutures. After 4 days of recovery, animals were sacrificed and left ventricular tissue processed for Western blot analysis as described above. Average heart weight to body weight ratios in isoproterenol versus vehicle-infused rats increased 48% (data not shown).

TRPC3 protein in NRVM = test: Western blot of TRPC3 protein in cultured NRVM exposed to hypertrophic stimuli; type: cell-based, rat; conditions: 48 h, phenylephrine, FBS 10%, calcineurin adenovirus MOI 25
Protocol: as §1, with “To verify equivalent protein loading, membranes were subsequently reprobed with a polyclonal rabbit antibody to the housekeeping gene IP90-calnexin. Densitometric analysis of immunoreactive band images was performed using a ChemiImager (Alpha Innotech).” left out

Question: With `NCCOB(c1ccccc1)c1ccccc1` [Compound 2-APB, 2-amino-ethoxydiphenyl borane] as the molecule, how does the “expression of 38 kDa calcineurin-independent MCIP1 isoform” value [1] read?
Answer: Its value is “unaffected”.

Question: What about the “PE-dependent induction of 28 kDa MCIP1 protein” value ([1]; PE-stimulated NRVM, increasing concentrations) of the same molecule?
Answer: The value was “attenuates; also recorded: attenuated induction”.

Question: What about the “inhibition of arachidonic acid-activated calcium channels” value [2] of the same molecule?
Answer: Its value is “not inhibited”.

Question: What about the “inhibition of ryanodine receptors” value (ryanodine receptors) of the same molecule?
Answer: The value was “not inhibited”.

Question: And the “cytotoxicity as measured by adenylate kinase release” value ([3]; 48 hours, 0.3 to 30 μM)?
Answer: Its value is “no significant cytotoxicity; also recorded: no significant toxicity was observed at any concentration”.

Question: And the “inhibition of voltage-gated calcium channels” value [4]?
Answer: The value was “not inhibited”.

Question: And the “inhibition of purinergic P2X receptor calcium channels” value [5]?
Answer: The value was “not inhibited”.

Question: And the “inhibition of calcium-activated chloride channels” value [6]?
Answer: Its value is “not inhibited”.

Question: And the “inhibition of S-nitrosylation-activated calcium channels” value [7]?
Answer: The value was “not inhibited”.

Question: With `CC(C)NCC(O)c1ccc(O)c(O)c1` (stereo not drawn) [isoproterenol] as the molecule, how does the TRPC3 protein expression ([8]; Rat iso model) read?
Answer: Its TRPC3 protein expression is “↑”.

Question: What about the TRPC5 protein expression ([8]; Rat iso model) of the same molecule?
Answer: The TRPC5 protein expression was “increased expression”.

Question: And the TRPC5 protein expression ([8]; Rat iso model, listed as iso)?
Answer: The TRPC5 protein expression was “↑”.

Question: What about the “induction of ventricular TRPC3 protein expression” value ([8]; rat, chronic isoproterenol infusion, densitometry) of the same molecule?
Answer: The value was “approximately three-fold”.

Question: And the “increase of average heart weight to body weight ratio versus vehicle-infused rats” value [9]?
Answer: Its value is 48%.

Question: For `CNC[C@H](O)c1cccc(O)c1` [phenylephrine], which “expression of 38 kDa calcineurin-independent MCIP1 isoform” value [1] is on record?
Answer: The value was “unaffected”.

Question: What about the “expression of 28 kDa MCIP1 protein” value ([1]; NRVM stimulated with phenylephrine) of the same molecule?
Answer: The value was “strongly induced”.

Question: What about the “expression of TRPC3 channel protein in cardiomyocytes” value (TRPC3 protein in NRVM) of the same molecule?
Answer: The value was “significantly increased”.

Question: For Triton X-100, which “fold change in AK release versus unstimulated control” value ([3]; 0.1% Triton X-100, positive control for cytotoxicity) is on record?
Answer: Its value is “approximately 6 fold”.

Reference: patent publication US20050182011A1, “Inhibition of TRP channels as a treatment for cardiac hypertrophy and heart failure” (priority 2003, published 2005)
